Like-named read-outs stand apart in the source and are kept apart here. Marks after values point to notes of the source that are not given here.
Experiments:
5-HT2A receptor [1] = target: T1, 5-HT2A receptor (Homo sapiens (Human), UniProt P28223); test: 5-HT2A radioligand competition binding ([3H]LSD or [3H]ketanserin)
[2] = In vitro liver microsome stability (RLM); type: in vitro ADME; details: rat, rat liver microsomes, 0.5 mg/mL microsomes, NADPH, read-out: RLM, t1/2
Protocol: In vitro stability was determined in Human (HLM), Rat (RLM), Mouse (MsLM), and dog (DLM) Liver Microsomes. All liver microsomes were purchased from a commercial supplier (e.g. XenoTech). The reaction mixture, minus NADPH, was prepared as described below. The test compound was added into the reaction mixture at a final concentration of 1 μM or co-dosed with their deuterated analog(s) at 1 μM each. The control compound, testosterone, was run simultaneously with the test compound in a separate reaction. The reaction mixture (without cofactor) was equilibrated in a shaking water bath at 37° C. for 5 minutes. The reaction was initiated by the addition of the cofactor, and the mixture was incubated in a shaking water bath at 37° C. Aliquots (150 μL) were withdrawn at 0, 5, 10, 20, 30, 60, and 120 minutes. Test compound and testosterone samples were immediately combined with 150 μL of ice-cold acetonitrile (ACN) containing 0.1% formic acid and internal standard to terminate the reaction. The samples were then mixed and centrifuged to precipitate proteins. All samples were assayed by LC-MS/MS using electrospray ionization. The peak area response ratio (PARR) of analyte to internal standard at each time point was compared to the PARR at time 0 to determine the percent remaining at each time point. Half-lives were calculated using GraphPad software, fitting to a single-phase exponential decay equation.

MAO-A = MAO-A (Homo sapiens (Human), UniProt P21397); test: Recombinant human MAO-A activity (stability); type: in vitro ADME; details: hrMAO 0.02 mg/mL, read-out: MAO-A, t1/2
MAO-A, sequence (P21397 whole entry, looked up): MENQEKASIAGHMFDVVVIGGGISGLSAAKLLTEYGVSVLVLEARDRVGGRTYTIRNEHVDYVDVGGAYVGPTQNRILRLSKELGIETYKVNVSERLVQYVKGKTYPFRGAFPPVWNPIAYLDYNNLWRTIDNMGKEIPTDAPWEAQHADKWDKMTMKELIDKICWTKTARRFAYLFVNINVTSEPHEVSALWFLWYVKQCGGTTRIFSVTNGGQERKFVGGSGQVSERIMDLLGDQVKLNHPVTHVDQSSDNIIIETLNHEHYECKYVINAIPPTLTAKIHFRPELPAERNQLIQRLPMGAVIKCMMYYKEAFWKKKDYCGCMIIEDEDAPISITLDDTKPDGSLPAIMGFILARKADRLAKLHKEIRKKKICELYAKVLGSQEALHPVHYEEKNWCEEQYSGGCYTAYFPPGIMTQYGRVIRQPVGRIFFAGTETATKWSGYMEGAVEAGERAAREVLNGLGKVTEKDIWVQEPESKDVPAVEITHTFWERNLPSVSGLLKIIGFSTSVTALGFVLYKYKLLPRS
Protocol: hrMAO-A and MAO control were purchased from XenoTech. The reaction mixture was prepared as described below. The test compound was added into the reaction mixture at a final concentration of 1 μM or co-dosed with their deuterated analog at 1 μM each. The positive control kynuramine (25 μM) was run simultaneously with the test compound in a separate reaction. The reaction mixture (without test compounds or kynuramine) was equilibrated in a shaking water bath at 37° C. for 5 minutes. The reaction was initiated by the addition of the test compound or kynuramine, and the mixture was incubated in a shaking water bath at 37° C. Aliquots (150 μL) of the test compound reaction mixture were withdrawn at 0, 5, 10, 20, 30, 60, and 120 minutes. Aliquots (150 μL) of the positive control reaction mixture were withdrawn at 0 and 30 minutes. Test compound(s) and kynuramine samples were immediately combined with 150 μL of ice-cold 100% acetonitrile containing 0.1% formic acid and internal standard (0.2 μM metoprolol) to terminate the reaction. The samples were then mixed and centrifuged to precipitate proteins. All samples were assayed by LC-MS/MS. The peak area response ratio (PARR) of analyte to internal standard at each time point was compared to the PARR at time 0 to determine the percent remaining at each time point. Half-lives were calculated using GraphPad software, fitting to a single-phase exponential decay equation.

5-HT2A receptor [3] = target: T1, 5-HT2A receptor; test: 5-HT2A functional assay, IP1 (IPOne); type: cell-based; details: IP1 assay; for EC50: read-out: 5-HT2A EC50; for Emax: relative to 5-HT
Protocol: After incubation, cells were lysed and fluorescence acceptor and donor were added. FRET was measured after 60 min at room temperature using a microplate reader (Envision, Perkin Elmer). TRUPATH assays followed a similar workflow, except that different reagents were used, and LiCl was not included in the samples; the protocol was based on the report by Olsen, R. H. J. et al., cited above.

[4] = Plasma and brain concentrations after dosing in mice (screening); type: in vivo, mouse; details: mouse; for concentration at 15 min / concentration at 160 min: sc, mice, 3 mg/kg s.c.; for Kp at 160 min: brain/plasma, subcutaneous, 3 mg/kg, 160 min after 3 mg/kg, read-out: brain/plasma ratio, 160 min
human 5-HT2B receptor = human 5-HT2B receptor (Homo sapiens (Human), UniProt P41595); test: 5-HT2B functional assay, IP1 (IPOne); type: cell-based; details: for Emax: IP1 assay, relative to 5-HT
human 5-HT2B receptor, sequence (P41595 whole entry, looked up): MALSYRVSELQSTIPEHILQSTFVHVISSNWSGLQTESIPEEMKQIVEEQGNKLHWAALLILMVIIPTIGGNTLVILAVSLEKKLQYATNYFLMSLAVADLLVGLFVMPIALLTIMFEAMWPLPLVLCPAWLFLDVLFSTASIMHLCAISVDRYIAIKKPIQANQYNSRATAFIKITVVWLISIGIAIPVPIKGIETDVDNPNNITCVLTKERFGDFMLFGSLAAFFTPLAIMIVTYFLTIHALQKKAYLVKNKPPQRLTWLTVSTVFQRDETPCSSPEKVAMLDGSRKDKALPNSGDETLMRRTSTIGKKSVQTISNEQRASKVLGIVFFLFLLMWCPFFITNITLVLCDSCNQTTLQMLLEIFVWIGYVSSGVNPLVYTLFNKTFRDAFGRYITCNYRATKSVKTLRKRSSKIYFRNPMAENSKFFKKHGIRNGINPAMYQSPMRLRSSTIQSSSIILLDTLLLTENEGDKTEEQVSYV
Protocol: 5-HT2A,2B,2C receptor-mediated Gq activation—canonical signaling pathways—[phosphoinositide hydrolysis leading to the production of inositol phosphate 1 (IP1, IPOne, Cisbio assay) or direct G-protein activation using TRUPATH technology]were measured as previously described (Porter, R. H. P., Benwell, K. R., Lamb, H., Malcolm, C. S., Allen, N. F., Revell, D. F., Adams, D. R. and Sheardown, M. J., 1999, Functional characterization of agonists at recombinant human 5-HT2a, 5HT2b and 5-HT2c receptors in CHO-K1 cells, Brit J Pharmacol 128, 13; Olsen, R. H. J., DiBerto, J. F., English, J. G. et al. TRUPATH, an open-source biosensor platform for interrogating the GPCR transducerome. […] Briefly, for the IPOne assay, for 5-HT2ARs, CHO-K1 or HEK-293 cells were incubated with test articles and 5-HT (positive control) in stimulation buffer containing LiCl. After incubation, cells were lysed and fluorescence acceptor and donor were added. FRET was measured after 60 min at room temperature using a microplate reader (Envision, Perkin Elmer). TRUPATH assays followed a similar workflow, except that different reagents were used, and LiCl was not included in the samples; the protocol was based on the report by Olsen, R. H. J. et al., cited above.

mice = test: Head-twitch response (HTR) screening in mice; type: in vivo, mouse
Protocol: Protocols were followed according to Canal C E, Morgan D. Head-twitch response in rodents induced by the hallucinogen 2,5-dimethoxy-4-iodoamphetamine: a comprehensive history, a re-evaluation of mechanisms, and its utility as a model. […] Mice were housed in standard laboratory cages with ad libitum access to food and water and were acclimated to the vivarium for at least one week prior to testing in a procedure room. In a typical experiment, mice were injected 3 mg/kg of test article subcutaneously. Mice were placed immediately thereafter in a clear, polycarbonate box (46×20×20 cm), and HTRs were counted at various time points after administration using hand-held tally counters. In a separate experiment, plasma and brain samples were collected at 15 and 160 minutes after administration of test compounds to measure plasma and brain concentrations. Quantification was performed using LC-MS/MS method (LLOQ, 9 nM).

[5] = read-out: 5-HT2A, Ki, radioligand [3H]LSD
[6] = brain, read-out: Brain, 160 min
[7] = plasma, read-out: Plasma, 15 min
[8] = plasma, read-out: Plasma, 160 min
[9] = read-out: 5-HT2A, Ki, radioligand [3H]ketanserin

Structure (SMILES): COc1cc(SCCC(F)(F)F)c(OC)cc1CCN [Compound I-2, 2-(2,5-dimethoxy-4-((3,3,3-trifluoropropyl)thio)phenyl)ethan-1-amine]
- affinity at 5-HT2A receptors (in words) (5-HT2A receptor [1]): high affinity
- Ki (5-HT2A receptor [1]; [5]): 8.5 nM
- half-life at 1 μM [2]: 24.8 min
- half-life at 1 μM (MAO-A): 30.9 min

Structure (SMILES): COc1cc(SCCCF)c(OC)cc1CCN [Compound I-4, 2-(4-((3-fluoropropyl)thio)-2,5-dimethoxyphenyl)ethan-1-amine]
- affinity at 5-HT2A receptors (in words) (5-HT2A receptor [1]): high affinity
- Ki (5-HT2A receptor [1]; [5]): 12 nM
- half-life at 1 μM [2]: 11 min
- half-life at 1 μM (MAO-A): 45 min

Structure (SMILES): COc1cc(OCCC(F)(F)F)c(OC)cc1CCN [Compound I-5, 2-(2,5-dimethoxy-4-(3,3,3-trifluoropropoxy)phenyl)ethan-1-amine]
- Ki (5-HT2A receptor [1]): > 150 nM
- half-life at 1 μM [2]: > 120 min

Structure (SMILES): COc1cc(OCCC(F)F)c(OC)cc1CCN [Compound I-6, 2-(4-(3,3-difluoropropoxy)-2,5-dimethoxyphenyl)ethan-1-amine]
- Ki (5-HT2A receptor [1]): > 150 nM
- half-life at 1 μM [2]: > 120 min

Structure (SMILES): COc1cc(OCCCF)c(OC)cc1CCN [Compound I-7, 2-(4-(3-fluoropropoxy)-2,5-dimethoxyphenyl)ethan-1-amine]
- Ki (5-HT2A receptor [1]): > 150 nM
- Ki (5-HT2A receptor [1]; [5]): 2600 nM
- half-life at 1 μM [2]: > 120 min
- half-life at 1 μM (MAO-A): > 120 min

Structure (SMILES): COc1cc(SCC(F)(F)C(F)F)c(OC)cc1CCN [Compound I-10, 2-(2,5-dimethoxy-4-((2,2,3,3-tetrafluoropropyl)thio)phenyl)ethan-1-amine]
- 2A/2B EC50 Selectivity (5-HT2A receptor [3]): 2.7
- EC50 (5-HT2A receptor [3]): 89 nM
- Emax (5-HT2A receptor [3]): 76%
- affinity at 5-HT2A receptors (in words) (5-HT2A receptor [1]): high affinity
- concentration at 15 min ([4]; brain, read-out: Brain 15 min): 900 nM
- concentration at 160 min [4, 6]: 1100 nM
- Kp at 160 min [4]: 12.3
- concentration at 15 min [4, 7]: 900 nM
- concentration at 160 min [4, 8]: 100 nM
- EC50 (human 5-HT2B receptor): 240 nM
- Emax (human 5-HT2B receptor): 84%
- HTR 15-25 min (mice; mice, 3 mg/kg s.c.): 3.4
- HTR 160-170 min (mice; mice, 3 mg/kg s.c.): 2.7

Structure (SMILES): C#CCSc1cc(OC)c(CCN)cc1OC [Compound I-11, 2-(2,5-dimethoxy-4-(prop-2-yn-1-ylthio)phenyl)ethan-1-amine]
- Ki (5-HT2A receptor [1]; [5]): 1.3 nM
- HTR 15-25 min (mice; calculated using 0-30 min): 24.5 ####
- HTR 160-170 min (mice; mice, 3 mg/kg s.c.): 16.7

Structure (SMILES): COc1cc(C2CCCC2)c(OC)cc1CCN [Compound I-13, 2-(4-cyclopentyl-2,5-dimethoxyphenyl)ethan-1-amine]
- affinity at 5-HT2A receptors (in words) (5-HT2A receptor [1]): appreciable affinity
- Ki (5-HT2A receptor [1]; [5]): 150 nM
- half-life at 1 μM [2]: 7.8 min
- HTR (in words) (mice; 3 mg/kg): did not elicit an HTR
- HTR 15-25 min (mice; mice, 3 mg/kg s.c.): 2.7
- half-life at 1 μM (MAO-A): > 120 min

Structure (SMILES): [2H]C([2H])([2H])Oc1cc(SC)c(OC([2H])([2H])[2H])cc1CCN [II-1, 2-(2,5-bis(methoxy-d3)-4-(methylthio)phenyl)ethan-1-amine]
- Ki (5-HT2A receptor [1]): > 150 nM
- Ki (5-HT2A receptor [1]; [9]): 174 nM
- half-life at 1 μM [2]: 5.7 min
- HTR 15-25 min (mice; measured 0-15 min): 21 ##

Structure (SMILES): [2H]C([2H])([2H])Oc1cc(C(C)(C)C)c(OC([2H])([2H])[2H])cc1CCN [II-3, 2-(4-(tert-butyl)-2,5-bis(methoxy-d3)phenyl)ethan-1-amine]
- Ki (5-HT2A receptor [1]; [5]): 11 nM
- half-life at 1 μM [2]: 2.4 min

Structure (SMILES): [2H]C([2H])([2H])Oc1cc(C2CCCC2)c(OC([2H])([2H])[2H])cc1CCN [II-4, 2-(4-cyclopentyl-2,5-bis(methoxy-d3)phenyl)ethan-1-amine]
- Ki (5-HT2A receptor [1]): > 150 nM
- Ki (5-HT2A receptor [1]; [5]): 202 nM
- half-life at 1 μM [2]: 7.5 min
- half-life at 1 μM (MAO-A): > 120 min

Structure (SMILES): [2H]C([2H])([2H])Oc1cc(C(F)(F)F)c(OC([2H])([2H])[2H])cc1CCN [II-23, 2-(2,5-bis(methoxy-d3)-4-(trifluoromethyl)phenyl)ethan-1-amine]
- Ki (5-HT2A receptor [1]; [9]): 55 nM
- half-life at 1 μM [2]: 21.4 min
- half-life at 1 μM (MAO-A): > 120 min

Structure (SMILES): [2H]C([2H])([2H])C(c1cc(OC)c(CCN)cc1OC)(C([2H])([2H])[2H])C([2H])([2H])[2H] [III-2, 2-(2,5-dimethoxy-4-(2-(methyl-d3)propan-2-yl-1,1,1,3,3,3-d6)phenyl)ethan-1-amine]
- Ki (5-HT2A receptor [1]): 10 nM
- half-life at 1 μM [2]: 2.5 min

Structure (SMILES): [2H]C([2H])(N)Cc1cc(OC)c(SC)cc1OC [IV-1, 2-(2,5-dimethoxy-4-(methylthio)phenyl)ethan-1,1-d2-1-amine]
- Ki (5-HT2A receptor [1]): > 150 nM
- Ki (5-HT2A receptor [1]; [9]): 357 nM
- half-life at 1 μM [2]: 5.3 min

Structure (SMILES): COc1cc(SC)c(OC)cc1CCN [Reference Compound 3, 2-(2,5-dimethoxy-4-(methylthio)phenyl)ethan-1-amine, reference compound]
- Ki (5-HT2A receptor [1]; [9]): 296 nM
- half-life at 1 μM [2]: 5.2 min
- HTR 15-25 min (mice; measured 0-15 min): 19 ##
- half-life at 1 μM (MAO-A): > 120 min

Structure (SMILES): COc1cc(C(C)(C)C)c(OC)cc1CCN [VI-1, 2-(4-(tert-butyl)-2,5-dimethoxyphenyl)ethan-1-amine]
- 2A/2B EC50 Selectivity (5-HT2A receptor [3]): 6
- EC50 (5-HT2A receptor [3]): 4.2 nM
- Emax (5-HT2A receptor [3]): 87%
- Ki (5-HT2A receptor [1]; [5]): 9.9 nM
- concentration at 15 min ([4]; brain, read-out: Brain 15 min): 2900 nM
- concentration at 160 min [4, 6]: 4600 nM
- Kp at 160 min [4]: 57.1
- concentration at 15 min [4, 7]: 250 nM
- concentration at 160 min [4, 8]: 80 nM
- EC50 (human 5-HT2B receptor): 25 nM
- Emax (human 5-HT2B receptor): 87%
- half-life at 1 μM [2]: 2.4 min
- HTR 15-25 min (mice; mice, 3 mg/kg s.c.): 24.5
- HTR 160-170 min (mice; mice, 3 mg/kg s.c.): 17.7

— patent US20250236589A1, “THERAPEUTIC PHENETHYLAMINE COMPOSITIONS AND METHODS OF USE” (Cybin IRL Limited, priority 2022, published 2025)
